43 molecules from patent publication US7338950B2, “Amide compounds as ion channel ligands and uses thereof” (Renovis, Inc., priority 2003, dated 2008) can be followed below.

Structures are written as SMILES.

Experiment [1] deals with T1, VR1 receptor (capsaicin induced current in dorsal root ganglion (DRG) neurons) (Rattus norvegicus, UniProt O35433).
T1 construct: Dorsal root ganglion (DRG) neurons were recovered from either neonatal or adult rats; endogenous in cells; host or cells: primary rat dorsal root ganglion neurons
T1 sequence (O35433 whole entry): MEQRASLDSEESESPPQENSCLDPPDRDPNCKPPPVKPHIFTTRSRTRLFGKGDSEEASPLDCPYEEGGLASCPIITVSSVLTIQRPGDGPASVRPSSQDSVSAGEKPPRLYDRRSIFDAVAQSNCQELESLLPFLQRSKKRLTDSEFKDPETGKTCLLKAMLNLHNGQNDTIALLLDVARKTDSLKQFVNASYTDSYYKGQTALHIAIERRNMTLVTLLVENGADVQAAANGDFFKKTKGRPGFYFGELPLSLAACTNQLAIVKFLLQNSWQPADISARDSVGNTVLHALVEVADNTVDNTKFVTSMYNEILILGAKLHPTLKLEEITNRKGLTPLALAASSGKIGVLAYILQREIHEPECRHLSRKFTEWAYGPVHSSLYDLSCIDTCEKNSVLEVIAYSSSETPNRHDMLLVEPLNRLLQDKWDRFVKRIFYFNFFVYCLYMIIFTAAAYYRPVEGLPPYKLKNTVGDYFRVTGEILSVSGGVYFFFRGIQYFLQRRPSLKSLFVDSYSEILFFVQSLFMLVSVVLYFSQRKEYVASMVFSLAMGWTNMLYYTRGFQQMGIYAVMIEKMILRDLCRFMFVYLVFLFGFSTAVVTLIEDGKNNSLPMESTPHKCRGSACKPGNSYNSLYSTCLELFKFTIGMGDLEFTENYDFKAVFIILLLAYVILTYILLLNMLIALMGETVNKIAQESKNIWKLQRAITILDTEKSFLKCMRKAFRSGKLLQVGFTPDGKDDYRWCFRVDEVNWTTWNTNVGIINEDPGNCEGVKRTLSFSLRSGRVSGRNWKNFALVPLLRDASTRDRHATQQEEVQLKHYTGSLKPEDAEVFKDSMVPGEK
The experiment in a line: Whole-cell patch clamp electrophysiology, capsaicin induced current in DRG neurons. It is filed as cell-based. How it is done:
Dorsal root ganglion (DRG) neurons were recovered from either neonatal or adult rats and plated onto poly-D-lysine coated glass coverslips. The plated neurons were transferred into a chamber to allow drug solutions to be added to the cells using a computer-controlled solenoid-valve based perfusion system. The cells were imaged using standard DIC optics. Cells were patched using finely-pulled glass electrodes. Voltage-clamp electrophysiology experiments were carried out using an Axon Instruments Multiclamp amplified controlled by pCLAMP8 software.
The cells were placed into a whole-cell voltage clamp and help at a voltage of −80 mV while monitoring the membrane current in gap-free recording mode. 500 nM capsaicin was added for 30 seconds as a control. Test compounds at various concentrations at ranging from (10-1000 nM) were added to the cells for 1 minute prior to a 30 second capsaicin application. Differences between control experiments and drug positive capsaicin experiments were used to determine the efficacy of each test compound. All compounds that inhibited capsaicin induced current greater than 50% were considered positives.

Experiment [2] relates to VR1 receptor (293 cells expressing capsaicin-insensitive VR1 receptor variants). The experiment in a line: High throughput screening of VR1 antagonists using a calcium imaging assay (Fura2, pH 5.1 stimulus).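 Also: Fura2 ratiometric fluorescence read every 4 s over 3 min, response taken as peak ratio minus baseline before pre-treatment, compound pre-treatment preceding acid challenge.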 The note with it: 1 uM compound; inhibition of calcium ion influx.

As for `O=C(NCc1ccc(Cl)c(Cl)c1)c1ccc(-c2ncccc2Cl)cc1` [Compound 24], the “dose response of inhibiting a capsaicin induced calcium ion influx (FIG. 4)” value in experiment [1] (20 nM, 40 nM, 100 nM and 200 nM) is on record as “increasing effectiveness”. This molecule also showed an inhibition at 0.2 µM in experiment [1] (DRG neuron, 200 nM, treatment time 25 seconds, 500 nM capsaicin, rat DRG neurons) of 100%.
Consider `CCOC(=O)c1cccc(NC(=O)c2ccc(-c3ncccc3Cl)cc2)c1` [Compound 1286], for which the “% Inhibition @ 1 uM” value in experiment [2] is “+ (compound exhibited 0-25% inhibition of calcium ion influx induced by capsaicin stimulation)”.
Take `COc1ccc(NC(=O)c2ccc(-c3ncccc3Cl)cc2)cc1O` [Compound 1288]: the “% Inhibition @ 1 uM” value in experiment [2] was “+ (compound exhibited 0-25% inhibition of calcium ion influx induced by capsaicin stimulation)”.
On to `O=C(Nc1ccc2cn[nH]c2c1)c1ccc(-c2ncccc2Cl)cc1` [Compound 1290], for which, in experiment [2], the “% Inhibition @ 1 uM” value is “++ (compound exhibited 25-50% inhibition of calcium ion influx induced by capsaicin stimulation)”.
On the same count and under the same terms, next, `CCCOc1ccc(NC(=O)c2ccc(-c3ncccc3Cl)cc2)cc1` [Compound 1291]: “+ (compound exhibited 0-25% inhibition of calcium ion influx induced by capsaicin stimulation)”; `O=C(Nc1ccc(OC(F)(F)F)cc1)c1ccc(-c2ncccc2Cl)cc1` [Compound 1293]: “+ (compound exhibited 0-25% inhibition of calcium ion influx induced by capsaicin stimulation)”.
In the case of `O=C(Nc1cccc(OC(F)(F)F)c1)c1ccc(-c2ncccc2Cl)cc1` [Compound 1294], the “% Inhibition @ 1 uM” value in experiment [2] is on record as “+ (compound exhibited 0-25% inhibition of calcium ion influx induced by capsaicin stimulation)”.
On to `CC(C)Oc1cccc(NC(=O)c2ccc(-c3ncccc3Cl)cc2)c1` [Compound 1295], for which, in experiment [2], the “% Inhibition @ 1 uM” value is “+ (compound exhibited 0-25% inhibition of calcium ion influx induced by capsaicin stimulation)”.
The same measure, in the same setting: next, `O=C(Nc1ccc(F)c(F)c1)c1ccc(-c2ncccc2Cl)cc1` [Compound 1296]: “+ (compound exhibited 0-25% inhibition of calcium ion influx induced by capsaicin stimulation)”; `CCOc1ccc(NC(=O)c2ccc(-c3ncccc3Cl)cc2)cc1` [Compound 1298]: “+ (compound exhibited 0-25% inhibition of calcium ion influx induced by capsaicin stimulation)”; `O=C(Nc1ccc(N2CCOCC2)c(Cl)c1)c1ccc(-c2ncccc2Cl)cc1` [Compound 1301]: “+++ (compound exhibited 50-75% inhibition of calcium ion influx induced by capsaicin stimulation)”.
The same measure, in the same setting: under `CN1CCCc2ccc(NC(=O)c3ccc(-c4ncccc4Cl)cc3)cc21` [Compound 1304] stands “+ (compound exhibited 0-25% inhibition of calcium ion influx induced by capsaicin stimulation)”; under `O=C(Nc1ccccc1)c1ccc(-c2ncccc2Cl)cn1` [Compound 1306], “++++ (compound exhibited 75% or greater inhibition of calcium ion influx induced by capsaicin stimulation)”.
With `O=C(Nc1ccc(F)cc1)c1ccc(-c2ncccc2Cl)cn1` [Compound 1308], the “% Inhibition @ 1 uM” value in experiment [2] is “+ (compound exhibited 0-25% inhibition of calcium ion influx induced by capsaicin stimulation)”.
Still for that read-out and setting: next, `N#Cc1ccccc1NC(=O)c1ccc(-c2ncccc2Cl)cn1` [Compound 1309]: “+ (compound exhibited 0-25% inhibition of calcium ion influx induced by capsaicin stimulation)”; `O=C(Nc1ccccc1Cl)c1ccc(-c2ncccc2Cl)cn1` [Compound 1314]: “++++ (compound exhibited 75% or greater inhibition of calcium ion influx induced by capsaicin stimulation)”; `N#Cc1cccc(NC(=O)c2ccc(-c3ncccc3Cl)cn2)c1` [Compound 1316]: “++++ (compound exhibited 75% or greater inhibition of calcium ion influx induced by capsaicin stimulation)”.
With `CCCCc1ccc(NC(=O)c2ccc(-c3ncccc3Cl)cn2)cc1` [Compound 1319], the “% Inhibition @ 1 uM” value in experiment [2] is “+++ (compound exhibited 50-75% inhibition of calcium ion influx induced by capsaicin stimulation)”.
As to `O=C(Nc1ccc(C2CCCCC2)cc1)c1ccc(-c2ncccc2Cl)cn1` [Compound 1320], in experiment [2], the “% Inhibition @ 1 uM” value was “++++ (compound exhibited 75% or greater inhibition of calcium ion influx induced by capsaicin stimulation)”.
Same read-out and setting: next, `O=C(Nc1ccc(C(F)(F)F)cc1)c1ccc(-c2ncccc2Cl)cn1` [Compound 1325]: “+ (compound exhibited 0-25% inhibition of calcium ion influx induced by capsaicin stimulation)”.
Consider `COc1cc(NC(=O)c2ccc(-c3ncccc3Cl)cn2)cc(C(F)(F)F)c1` [Compound 1328], for which, in experiment [2], the “% Inhibition @ 1 uM” value is on record as “+ (compound exhibited 0-25% inhibition of calcium ion influx induced by capsaicin stimulation)”.
In the case of `Cc1cc(C)nc(NC(=O)c2ccc(-c3ncccc3Cl)cn2)c1` [Compound 1329], in experiment [2], the “% Inhibition @ 1 uM” value is reported as “+ (compound exhibited 0-25% inhibition of calcium ion influx induced by capsaicin stimulation)”.
Regarding `O=C(Nc1ccncc1)c1ccc(-c2ncccc2Cl)cn1` [Compound 1330], the “% Inhibition @ 1 uM” value in experiment [2] is “+++ (compound exhibited 50-75% inhibition of calcium ion influx induced by capsaicin stimulation)”.
The same measure, in the same setting: under `O=C(Nc1ccc(N2CCOCC2)cc1)c1ccc(-c2ncccc2Cl)cn1` [Compound 1334] stands “+ (compound exhibited 0-25% inhibition of calcium ion influx induced by capsaicin stimulation)”; under `Cc1ccnc(NC(=O)c2ccc(-c3ncccc3Cl)cn2)c1` [Compound 1335], “+ (compound exhibited 0-25% inhibition of calcium ion influx induced by capsaicin stimulation)”.
In the case of `O=C(Nc1ccncn1)c1ccc(-c2ncccc2Cl)cn1` [Compound 1336], the “% Inhibition @ 1 uM” value in experiment [2] was “++++ (compound exhibited 75% or greater inhibition of calcium ion influx induced by capsaicin stimulation)”.
Regarding `COc1ccc(NC(=O)c2ccc(-c3ncccc3Cl)cn2)cn1` [Compound 1341], the “% Inhibition @ 1 uM” value in experiment [2] is on record as “++ (compound exhibited 25-50% inhibition of calcium ion influx induced by capsaicin stimulation)”.
As for `O=C(Nc1ccnc(Cl)c1)c1ccc(-c2ncccc2Cl)cn1` [Compound 1342], the “% Inhibition @ 1 uM” value in experiment [2] is given as “+ (compound exhibited 0-25% inhibition of calcium ion influx induced by capsaicin stimulation)”.
For `Cc1cc(NC(=O)c2ccc(-c3ncccc3Cl)cn2)nc(C)n1` [Compound 1343], the “% Inhibition @ 1 uM” value in experiment [2] is listed as “+ (compound exhibited 0-25% inhibition of calcium ion influx induced by capsaicin stimulation)”.
For `O=C(Nc1ccc2ncccc2c1)c1ccc(-c2ncccc2Cl)cn1` [Compound 1344], the “% Inhibition @ 1 uM” value in experiment [2] was “+ (compound exhibited 0-25% inhibition of calcium ion influx induced by capsaicin stimulation)”.
Regarding `CCn1c2ccccc2c2cc(NC(=O)c3ccc(-c4ncccc4Cl)cn3)ccc21` [Compound 1345], the “% Inhibition @ 1 uM” value in experiment [2] is reported as “++++ (compound exhibited 75% or greater inhibition of calcium ion influx induced by capsaicin stimulation)”.
Turning to `O=C(Nc1ccc2ccccc2c1)c1ccc(-c2ncccc2Cl)cn1` [Compound 1348], the “% Inhibition @ 1 uM” value in experiment [2] is recorded as “++ (compound exhibited 25-50% inhibition of calcium ion influx induced by capsaicin stimulation)”.
As to `O=C(Nc1ccc(OCc2ccccc2)cc1)c1ccc(-c2ncccc2Cl)cn1` [Compound 1349], in experiment [2], the “% Inhibition @ 1 uM” value is “+ (compound exhibited 0-25% inhibition of calcium ion influx induced by capsaicin stimulation)”.
On the same count and under the same terms, next, `CCOC(=O)c1ccc(NC(=O)c2ccc(-c3ncccc3Cl)cn2)cc1` [Compound 1350]: “+ (compound exhibited 0-25% inhibition of calcium ion influx induced by capsaicin stimulation)”.
With `COc1ccc(NC(=O)c2ccc(-c3ncccc3Cl)cn2)cc1O` [Compound 1355], the “% Inhibition @ 1 uM” value in experiment [2] is on record as “++ (compound exhibited 25-50% inhibition of calcium ion influx induced by capsaicin stimulation)”.
Regarding `COc1cc(NC(=O)c2ccc(-c3ncccc3Cl)cn2)cc(OC)c1OC` [Compound 1356], the “% Inhibition @ 1 uM” value in experiment [2] is reported as “+ (compound exhibited 0-25% inhibition of calcium ion influx induced by capsaicin stimulation)”.
Still for that read-out and setting: under `O=C(Nc1ccc2cn[nH]c2c1)c1ccc(-c2ncccc2Cl)cn1` [Compound 1357] stands “++++ (compound exhibited 75% or greater inhibition of calcium ion influx induced by capsaicin stimulation)”.
Consider `CCCOc1ccc(NC(=O)c2ccc(-c3ncccc3Cl)cn2)cc1` [Compound 1358], for which the “% Inhibition @ 1 uM” value in experiment [2] is “+ (compound exhibited 0-25% inhibition of calcium ion influx induced by capsaicin stimulation)”.
Turning to `O=C(Nc1ccc(OC(F)(F)F)cc1)c1ccc(-c2ncccc2Cl)cn1` [Compound 1360], in experiment [2], the “% Inhibition @ 1 uM” value is given as “+ (compound exhibited 0-25% inhibition of calcium ion influx induced by capsaicin stimulation)”.
The same measure, in the same setting: under `O=C(Nc1cccc(OC(F)(F)F)c1)c1ccc(-c2ncccc2Cl)cn1` [Compound 1361] stands “++ (compound exhibited 25-50% inhibition of calcium ion influx induced by capsaicin stimulation)”; under `CC(C)Oc1cccc(NC(=O)c2ccc(-c3ncccc3Cl)cn2)c1` [Compound 1362], “+ (compound exhibited 0-25% inhibition of calcium ion influx induced by capsaicin stimulation)”.
With `O=C(Nc1ccc(F)c(F)c1)c1ccc(-c2ncccc2Cl)cn1` [Compound 1363], the “% Inhibition @ 1 uM” value in experiment [2] is “++++ (compound exhibited 75% or greater inhibition of calcium ion influx induced by capsaicin stimulation)”.
Turning to `CCOc1cccc(NC(=O)c2ccc(-c3ncccc3Cl)cn2)c1` [Compound 1364], the “% Inhibition @ 1 uM” value in experiment [2] was “++++ (compound exhibited 75% or greater inhibition of calcium ion influx induced by capsaicin stimulation)”.

For orientation: inhibition means the change of the read-out against control, counted positive when it falls.
